From patent US12624044B2, “SMARCA degraders and uses thereof” (Kymera Therapeutics, Inc., priority 2019, dated 2026)

How the values were obtained:
Format in all cases: cell-based
SMARCA4 = target: T1, SMARCA4 (Homo sapiens, UniProt P51532); experiment: SMARCA4 Western blot MV4-11 degradation; details: 24 h; for Dmax: MV4-11, MV4-11 cells, read-out: SMARCA4 WB MV411 degradation 24 h: Average Dmax %; for DC50: MV4-11 cells, read-out: SMARCA4 WB MV411 degradation 24 h: Average external-Abs DC50
T1 construct: SMARCA2 and SMARCA4 protein degradation in MV4-11 cells; endogenous in cells; host or cells: MV4-11
T1 sequence (P51532 whole entry): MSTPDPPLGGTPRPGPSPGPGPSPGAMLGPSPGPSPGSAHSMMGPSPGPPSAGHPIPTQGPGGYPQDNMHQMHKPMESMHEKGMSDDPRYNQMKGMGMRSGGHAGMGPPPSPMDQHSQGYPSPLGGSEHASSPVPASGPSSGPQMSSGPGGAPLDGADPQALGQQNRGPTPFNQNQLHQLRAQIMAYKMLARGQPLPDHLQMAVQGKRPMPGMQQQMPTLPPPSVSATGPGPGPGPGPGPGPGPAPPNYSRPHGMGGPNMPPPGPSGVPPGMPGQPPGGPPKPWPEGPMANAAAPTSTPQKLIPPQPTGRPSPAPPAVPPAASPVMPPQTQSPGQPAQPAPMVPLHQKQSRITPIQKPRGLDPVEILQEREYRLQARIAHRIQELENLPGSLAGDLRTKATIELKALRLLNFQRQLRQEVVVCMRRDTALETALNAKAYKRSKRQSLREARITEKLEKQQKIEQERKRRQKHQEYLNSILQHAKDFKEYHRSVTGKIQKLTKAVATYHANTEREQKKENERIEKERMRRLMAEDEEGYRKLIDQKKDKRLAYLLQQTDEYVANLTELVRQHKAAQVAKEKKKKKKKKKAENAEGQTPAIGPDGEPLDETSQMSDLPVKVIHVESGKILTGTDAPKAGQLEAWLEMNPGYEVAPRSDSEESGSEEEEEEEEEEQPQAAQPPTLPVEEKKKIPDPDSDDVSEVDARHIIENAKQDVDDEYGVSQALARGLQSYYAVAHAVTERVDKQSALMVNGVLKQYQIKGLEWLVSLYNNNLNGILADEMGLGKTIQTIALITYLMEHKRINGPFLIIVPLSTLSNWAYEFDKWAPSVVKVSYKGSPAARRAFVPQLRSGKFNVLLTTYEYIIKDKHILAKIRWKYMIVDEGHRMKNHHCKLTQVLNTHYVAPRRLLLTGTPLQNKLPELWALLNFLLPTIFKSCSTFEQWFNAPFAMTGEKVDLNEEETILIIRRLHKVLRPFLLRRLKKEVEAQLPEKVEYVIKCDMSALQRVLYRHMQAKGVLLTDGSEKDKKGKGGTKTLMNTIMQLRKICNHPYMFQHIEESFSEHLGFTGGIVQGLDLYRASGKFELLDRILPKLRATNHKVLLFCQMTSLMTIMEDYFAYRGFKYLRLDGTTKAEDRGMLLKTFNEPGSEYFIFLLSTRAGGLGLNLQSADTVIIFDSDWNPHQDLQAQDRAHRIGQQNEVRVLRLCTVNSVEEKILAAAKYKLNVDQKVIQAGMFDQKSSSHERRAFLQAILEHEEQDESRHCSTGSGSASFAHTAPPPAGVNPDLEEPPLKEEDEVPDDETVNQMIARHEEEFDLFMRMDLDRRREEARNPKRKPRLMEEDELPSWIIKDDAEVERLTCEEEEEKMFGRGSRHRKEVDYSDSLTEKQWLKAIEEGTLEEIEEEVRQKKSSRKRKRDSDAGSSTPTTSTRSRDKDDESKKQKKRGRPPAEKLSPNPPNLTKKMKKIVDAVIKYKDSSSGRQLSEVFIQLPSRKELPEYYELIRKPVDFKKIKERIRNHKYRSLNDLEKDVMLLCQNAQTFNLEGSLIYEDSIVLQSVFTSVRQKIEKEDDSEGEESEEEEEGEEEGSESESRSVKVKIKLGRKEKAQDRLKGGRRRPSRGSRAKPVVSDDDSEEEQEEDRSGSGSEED
Procedure, shortened: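 MV4-11 cells treated with compound for 24 h, lysed in RIPA with protease/phosphatase inhibitors, and SMARCA2 and SMARCA4 (BRG1) levels assessed by Western blot with β-actin loading control and LI-COR fluorescent read-out. Maximal degradation (Dmax %) after 24 h binned into letter codes.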

SMARCA2 [1] = target: T2, SMARCA2 (Homo sapiens, UniProt P51531); experiment: MSD SMARCA2 degradation in A549 cell line; details: 24 h; for Dmax: A549, A549 cells; for DC50: A549 cells, read-out: SMARCA2 MSD A549 degradation 24 h: Average external-Abs DC50
T2 sequence (P51531 whole entry): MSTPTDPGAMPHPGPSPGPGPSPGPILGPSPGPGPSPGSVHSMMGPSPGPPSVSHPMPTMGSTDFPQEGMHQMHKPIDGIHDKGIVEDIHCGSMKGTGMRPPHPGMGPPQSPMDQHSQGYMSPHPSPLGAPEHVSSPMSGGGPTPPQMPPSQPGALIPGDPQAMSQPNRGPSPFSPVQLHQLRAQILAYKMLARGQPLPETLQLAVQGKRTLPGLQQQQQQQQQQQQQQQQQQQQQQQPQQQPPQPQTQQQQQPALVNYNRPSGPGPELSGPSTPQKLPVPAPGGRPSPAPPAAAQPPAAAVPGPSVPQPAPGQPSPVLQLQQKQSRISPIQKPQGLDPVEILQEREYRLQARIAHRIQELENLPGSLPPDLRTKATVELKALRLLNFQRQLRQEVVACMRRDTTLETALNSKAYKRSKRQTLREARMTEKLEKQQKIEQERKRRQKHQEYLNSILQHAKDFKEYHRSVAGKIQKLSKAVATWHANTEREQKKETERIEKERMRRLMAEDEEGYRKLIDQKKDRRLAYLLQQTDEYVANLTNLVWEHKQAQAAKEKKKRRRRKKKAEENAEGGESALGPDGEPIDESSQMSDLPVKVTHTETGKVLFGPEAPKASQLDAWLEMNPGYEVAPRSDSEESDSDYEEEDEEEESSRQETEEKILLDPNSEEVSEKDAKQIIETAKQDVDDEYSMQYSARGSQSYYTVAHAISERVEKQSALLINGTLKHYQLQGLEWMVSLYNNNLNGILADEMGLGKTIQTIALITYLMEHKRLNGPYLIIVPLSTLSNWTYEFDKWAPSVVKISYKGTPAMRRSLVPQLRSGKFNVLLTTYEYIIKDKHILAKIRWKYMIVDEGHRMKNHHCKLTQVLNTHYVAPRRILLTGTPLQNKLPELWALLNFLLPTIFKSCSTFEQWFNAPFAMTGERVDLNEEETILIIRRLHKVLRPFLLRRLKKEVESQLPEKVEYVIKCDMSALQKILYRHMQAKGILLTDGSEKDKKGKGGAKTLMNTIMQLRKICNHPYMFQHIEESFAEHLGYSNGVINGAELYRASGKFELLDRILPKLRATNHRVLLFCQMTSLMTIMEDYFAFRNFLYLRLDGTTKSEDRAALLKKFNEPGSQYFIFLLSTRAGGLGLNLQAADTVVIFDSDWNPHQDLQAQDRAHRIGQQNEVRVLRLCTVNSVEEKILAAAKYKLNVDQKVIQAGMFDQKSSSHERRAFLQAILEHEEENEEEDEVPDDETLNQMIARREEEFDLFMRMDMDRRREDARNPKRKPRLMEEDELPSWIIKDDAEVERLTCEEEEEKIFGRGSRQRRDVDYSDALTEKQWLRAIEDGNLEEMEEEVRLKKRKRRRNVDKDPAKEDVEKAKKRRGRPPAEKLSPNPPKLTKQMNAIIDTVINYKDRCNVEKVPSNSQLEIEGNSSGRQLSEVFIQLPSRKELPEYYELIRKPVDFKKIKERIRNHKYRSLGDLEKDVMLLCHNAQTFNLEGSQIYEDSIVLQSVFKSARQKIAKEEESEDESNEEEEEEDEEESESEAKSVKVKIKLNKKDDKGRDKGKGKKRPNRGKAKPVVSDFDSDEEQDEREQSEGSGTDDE
Procedure, shortened: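 SMARCA2 remaining was measured by MSD electrochemiluminescence on RIPA lysates (anti-SMARCA2 plus SULFO-TAG anti-rabbit). Prior exposure: 24 h of A549 cells to a 10-point, 3-fold dilution series topping at 1000 nM final; Dmax % given as graded codes.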

SMARCA2 [2] = target: T2, SMARCA2; experiment: MSD SMARCA2 degradation in NCI-H1299 cell line (24 h); parameters: HC: NCI-H1299 cells treated with DMSO; host or cells: NCI-H1299; details: for Dmax: NCI-H1299, NCI-H1299 cells; for DC50: NCI-H1299 cells, read-out: SMARCA2 MSD H1299 degradation 24 h: External Abs-DC50
Procedure, shortened: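 SMARCA2 measured by MSD electrochemiluminescence (primary 0.3 ug/ml, secondary 1 ug/ml) on lysates from NCI-H1299 cells exposed to compounds for 24 h across nine 3-fold dilutions. Signal scaled from A2780 cells (no SMARCA2) to DMSO-treated H1299 controls, and maximal degradation after 24 h reported in letter categories.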

| Compound | Dmax (SMARCA4) [%] | DC50 (SMARCA4) [µM] | Dmax (SMARCA2 [1]) [%] | DC50 (SMARCA2 [1]) [µM] | Dmax (SMARCA2 [2]) [%] | DC50 (SMARCA2 [2]) [µM] |
| --- | --- | --- | --- | --- | --- | --- |
| Cn1c(=O)n(C2CCC(=O)NC2=O)c2ccc(CCCN3CCN(c4cnc(N5C6CCC5CN(c5cc(-c7ccccc7O)nnc5N)C6)nc4)CC3)cc21 (stereo not drawn) [I-285] | > 90 | < 0.1 | > 90 | < 0.1 | > 90 | < 0.1 |
| Cc1ncsc1-c1ccc(CNC(=O)[C@@H]2C[C@@H](O)CN2C(=O)[C@@H](NC(=O)CCN2CCC(c3cnc(N4C5CCC4CN(c4cc(-c6ccccc6O)nnc4N)C5)nc3)CC2)C(C)(C)C)cc1 [I-449] | < 50 | 0.1 to 0.5 | < 50 | > 1 | < 50 | 0.1 to 0.5 |
| Cc1ncsc1-c1ccc(CNC(=O)[C@@H]2C[C@@H](O)CN2C(=O)[C@@H](NC(=O)CN(C)CC#Cc2cnc(N3C4CCC3CN(c3cc(-c5ccccc5O)nnc3N)C4)nc2)C(C)(C)C)cc1 [I-495] | > 90 | < 0.1 | 70 to 90 | 0.1 to 0.5 | 70 to 90 | 0.1 to 0.5 |
| NCC#Cc1nccc(N2C3CCC2CN(c2cc(-c4ccccc4O)nnc2N)C3)n1 [I-534, 2-[6-amino-5-[8-[2-(3-aminoprop-1-ynyl)pyrimidin-4-yl]-3,8-diazabicyclo[3.2.1]octan-3-yl]pyridazin-3-yl]phenol] | 70 to 90 | > 1 | < 50 | > 1 | > 90 | 0.1 to 0.5 |
| Cc1ncsc1-c1ccc(CNC(=O)[C@@H]2C[C@@H](O)CN2C(=O)[C@@H](NC(=O)N2CCC(c3cnc(N4C5CCC4CN(c4cc(-c6ccccc6O)nnc4N)C5)nc3)CC2)C(C)(C)C)cc1 [I-448] | > 90 | < 0.1 | > 90 | 0.1 to 0.5 | 70 to 90 | 0.1 to 0.5 |
| Cn1c(=O)n(C2CCC(=O)NC2=O)c2ccc(C3CCC(N4CCC(c5cnc(N6C7CCC6CN(c6cc(-c8ccccc8O)nnc6N)C7)nc5)CC4)CC3)cc21 (stereo not drawn) [I-290] | > 90 | < 0.1 | > 90 | < 0.1 | > 90 | < 0.1 |
